Experimental data published in US20240083885A1, “COMPOSITIONS AND METHODS FOR INHIBITING M PRO PROTEASE ACTIVITY AND FOR PREVENTING AND TREATING SARS-COV-2 INFECTION” (priority 2020, published 2024).
pEC50, pIC50: −log10 of the molar value. Like-named read-outs stand apart in the source and are kept apart here.

Legend:
[1] = test system: SARS-CoV-2; assay: microbe, parasite or virus in culture; assay type: cell-based; conditions: read-out: antiviral EC50 against SARS-CoV-2 in Vero E6 cells
[2] = test system: SARS-CoV-2; assay: microbe, parasite or virus in culture; assay type: cell-based; conditions: Caco2-hACE2 cells; read-out: antiviral EC50 against SARS-CoV-2 in Caco2-hACE2 cells
[3] = target: T1, calpain I (Homo sapiens (Human), UniProt P07384); assay: Host protease FRET-based enzymatic assay: calpain I; assay type: biochemical
Protocol: (§1) Enzymatic reactions against host proteases (Calpain I, Cathepisn K, Cathespsin L, Caspase-3 and Trypisn) were carried out as previously described (see, Xia, Z.; et al., ACS Pharmacol. Transl. Sci. 2021). Cathepsin B assay reaction was carried out as follows: Cathepsin B (catalog no. CTB-H5222) was diluted into 100 nM final concentration in a buffer containing 20 mM sodium acetate pH5.5, 1 mM EDTA and 2 mM DTT and the mixture was incubated for 30 min at 30° C. Activated Cathepsin B was further diluted to 500 pm in the reaction buffer (100 mM MES pH6.0, 1 mM EDTA, 2 mM DTT and 0.01% TWEEN 20).

[4] = target: Cathepsin B (Homo sapiens (Human), UniProt P07858); assay: Host protease FRET-based enzymatic assay: cathepsin B; assay type: biochemical
Protocol: as §1

[5] = target: cathepsin K (Homo sapiens (Human), UniProt P43235); assay type: biochemical
Sequence of cathepsin K (P43235 115-329 limits assumed): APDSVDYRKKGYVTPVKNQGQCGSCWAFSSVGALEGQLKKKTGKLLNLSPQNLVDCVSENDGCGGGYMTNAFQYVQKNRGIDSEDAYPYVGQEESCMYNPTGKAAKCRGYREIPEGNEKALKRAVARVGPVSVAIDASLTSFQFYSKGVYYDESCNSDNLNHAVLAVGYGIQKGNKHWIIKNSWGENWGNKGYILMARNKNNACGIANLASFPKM

[6] = target: T2, Cathepsin L (Homo sapiens (Human), UniProt P07711); assay: Host protease FRET-based enzymatic assay: cathepsin L; assay type: biochemical
T2 sequence (P07711 114-333 limits assumed): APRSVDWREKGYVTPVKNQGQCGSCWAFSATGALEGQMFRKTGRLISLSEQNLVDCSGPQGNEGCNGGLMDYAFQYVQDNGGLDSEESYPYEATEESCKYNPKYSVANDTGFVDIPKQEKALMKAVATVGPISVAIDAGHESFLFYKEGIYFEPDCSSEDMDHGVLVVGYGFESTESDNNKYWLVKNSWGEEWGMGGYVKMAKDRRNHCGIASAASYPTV
Protocol: The cathepsin L enzymatic assay was carried out as follows: human liver cathepsin L (EMD Millipore 219402) was activated by incubating at reaction buffer (20 mM sodium acetate, 1 mM EDTA and 5 mM DTT pH5.5) for 30 min at 30° C. Upon activation, the assay was assembled in 96-well plates with 100 μl of 300 pM cathepsin L protein in cathepsin L reaction buffer. Then 1 μl testing compound at various concentrations was added to each well and incubated at 30° C. for 30 min. The enzymatic reaction was initiated by adding 1 μl of 100 μM FRET substrate Z-Phe-Arg-AMC (the final substrate concentration is about 1 μM). The reaction was monitored in a Cytation 5 image reader with filters for excitation at 360/40 nm and emission at 460/40 nm at 30° C. for 1 hr. The IC50 values were calculated as described in above section.
as §1

[7] = target: caspase-3 (Homo sapiens (Human), UniProt P42574); assay: Host protease FRET-based enzymatic assay: caspase-3; assay type: biochemical; conditions: read-out: inhibition of caspase-3 (IC50)
Sequence of caspase-3 (P42574 29-175 limits assumed): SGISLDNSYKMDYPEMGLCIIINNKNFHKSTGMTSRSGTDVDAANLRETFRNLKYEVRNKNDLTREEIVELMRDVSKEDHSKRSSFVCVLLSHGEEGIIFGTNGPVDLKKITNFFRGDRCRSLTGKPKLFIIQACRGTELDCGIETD
Sequence of caspase-3 (P42574 176-277 limits assumed): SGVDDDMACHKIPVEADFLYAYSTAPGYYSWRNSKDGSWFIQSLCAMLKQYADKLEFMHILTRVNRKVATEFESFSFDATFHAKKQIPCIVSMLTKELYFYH
Protocol: as §1

[8] = test system: trypsin; assay: Host protease FRET-based enzymatic assay: trypsin; assay type: biochemical; conditions: read-out: inhibition of trypsin (IC50)
[9] = test system: Vero E6 cells
[10] = target: T2, Cathepsin L; conditions: read-out: Cathepsin L IC50; cited from earlier work
[11] = target: T1, calpain I; conditions: read-out: Additional off targets: Calpain I IC50; cited from earlier work

CC(C)C[C@H](NC(=O)OCc1ccccc1)C(=O)N[C@@H](CC1CCNC1=O)C(O)S(=O)(=O)[O-].[Na+] (some centres unmarked) [GC-376, reference compound]
pEC50 [1]: 5.82
pEC50 [2]: 5.54
inhibition of calpain I [3]: potent inhibition
inhibition of cathepsin B [4]: potent inhibition
inhibition of cathepsin K [5]: potent inhibition
inhibition of cathepsin L (IC50) [6]: potent inhibition
pIC50 [7]: < 4.70
CC50 [9]: > 125000 nM
pIC50 [10]: 9.00
pIC50 [11]: 7.13
